Consider 10 compounds from PubChem BioAssay (NCI).

Where “and” joins values, the source holds several entries; their conditions need not be identical. Equal values may be shown once.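 Step 1: Grow cells in 96-well plates. Step 2: Expose to compound for 48 hours at 5 concentrations. Step 3: Interpolate endpoints linearly; if unreached, use highest concentration. At the GI50, growth is halved. TGI: total growth inhibition.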

Test systems include A549 NSCLC; DU-145 prostate; EKVX NSCLC; HCT-15 colon; MCF7 breast; NCI/ADR-RES ovarian; OVCAR-8 ovarian; RPMI-8226 leukemia; SK-MEL-5 melanoma; SR leukemia.
Common to all, as to assay: growth of human tumour cells (NCI), 48 h

Turning to `CNCCNc1nc2ccccc2c2c(=O)c3cc(F)ccc3sc12`, the GI50 in the assay with A549 NSCLC was 1.65 µM; with DU-145 prostate it was 1.71 µM; with EKVX NSCLC, 1.74 µM; with HCT-15 colon, 1.65 µM; with MCF7 breast it was 1.67 µM; with NCI/ADR-RES ovarian, 1.82 µM. Also, the GI50 was 1.85 µM with OVCAR-8 ovarian, 1.91 µM in the assay with RPMI-8226 leukemia, 1.82 µM in the assay on SK-MEL-5 melanoma and 1.83 µM in the assay on SR leukemia. For the same compound, the TGI with A549 NSCLC was 3.29 µM; in the assay with DU-145 prostate, 3.15 µM; with EKVX NSCLC it was 3.57 µM; in the assay with HCT-15 colon, 3.26 µM; with MCF7 breast it was 3.31 µM; in the assay with NCI/ADR-RES ovarian, 3.83 µM. Moreover, the TGI in the assay on OVCAR-8 ovarian turned out to be 3.84 µM; in the assay on RPMI-8226 leukemia, 4.03 µM; with SK-MEL-5 melanoma it was 3.34 µM; in the assay on SR leukemia, 4.31 µM.

Take `C/C(=N\NC(=S)N1CCN(c2ccccn2)CC1)c1nccs1`: the TGI came to 13.3 µM in the assay with A549 NSCLC; 14.1 µM in the assay on DU-145 prostate; 10.6 µM with EKVX NSCLC; 21.3 µM with HCT-15 colon; 18.3 µM with MCF7 breast; 2.56 µM with NCI/ADR-RES ovarian. Moreover, the TGI worked out at 14.4 µM with OVCAR-8 ovarian, 23.2 µM in the assay on RPMI-8226 leukemia, 6.3 µM with SK-MEL-5 melanoma and 4.63 µM in the assay on SR leukemia. The GI50 in the assay with EKVX NSCLC was 0.0334 µM; with HCT-15 colon, 0.0472 µM; in the assay on MCF7 breast, 0.377 µM; with NCI/ADR-RES ovarian, 0.279 µM; in the assay with RPMI-8226 leukemia, 0.0145 µM; in the assay with SR leukemia it was 0.236 µM.

Regarding `Nc1cc2[nH]cnc2c(=O)[nH]1`, the TGI with A549 NSCLC, in the assay with DU-145 prostate, with EKVX NSCLC, in the assay with HCT-15 colon, in the assay on MCF7 breast and in the assay with NCI/ADR-RES ovarian was greater than 300 µM each time. Moreover, the TGI was greater than 300 µM with OVCAR-8 ovarian, greater than 300 µM in the assay with RPMI-8226 leukemia, greater than 290 µM in the assay on SK-MEL-5 melanoma and greater than 94.9 µM in the assay on SR leukemia.

Turning to `CC(C(=O)O)c1ccc(-c2ccccc2)c(F)c1` (centres undefined), the TGI in the assay on A549 NSCLC, in the assay with DU-145 prostate, with EKVX NSCLC, in the assay with HCT-15 colon, in the assay on MCF7 breast and in the assay on NCI/ADR-RES ovarian was greater than 100 µM throughout. For the same compound, the TGI in the assay with OVCAR-8 ovarian, in the assay with RPMI-8226 leukemia, in the assay on SK-MEL-5 melanoma and with SR leukemia was greater than 100 µM in each case.

On to `N=c1ccc2nc3c(cc(N)c4ccccc43)oc-2c1`, for which the GI50 in the assay with A549 NSCLC is 0.295 µM; in the assay with DU-145 prostate, 0.265 µM; in the assay with EKVX NSCLC, 0.174 µM; with HCT-15 colon, 0.214 µM; in the assay with MCF7 breast it was 0.162 µM; in the assay with NCI/ADR-RES ovarian it was 0.223 µM. Also, the GI50 was 0.457 µM in the assay on OVCAR-8 ovarian, 0.427 µM in the assay with RPMI-8226 leukemia, 0.144 µM with SK-MEL-5 melanoma and 0.285 µM in the assay on SR leukemia. Further, the TGI worked out at 1.05 µM in the assay with A549 NSCLC; 0.692 µM in the assay with DU-145 prostate; 1.09 µM in the assay on EKVX NSCLC; 1.13 µM in the assay on HCT-15 colon; 0.342 µM in the assay with MCF7 breast; 1.09 µM in the assay on NCI/ADR-RES ovarian. For the same compound, the TGI turned out to be 3.28 µM in the assay on OVCAR-8 ovarian, 2.94 µM in the assay on RPMI-8226 leukemia, 0.277 µM with SK-MEL-5 melanoma and 1.29 µM with SR leukemia.

For the compound `Cc1nn(CNc2ccccc2C(F)(F)F)c(=S)n1/N=C/c1ccc(F)cc1`, the GI50 in the assay with A549 NSCLC was greater than 100 µM; in the assay with DU-145 prostate it was greater than 100 µM; with EKVX NSCLC it was 42 µM; in the assay on HCT-15 colon, 53.7 µM; with MCF7 breast it was 60.3 µM; with NCI/ADR-RES ovarian it was greater than 100 µM. For the same compound, the GI50 in the assay on OVCAR-8 ovarian is greater than 100 µM; in the assay on RPMI-8226 leukemia it was 48.5 µM; with SK-MEL-5 melanoma it was greater than 100 µM; in the assay with SR leukemia, 12.3 µM. Further, the TGI in the assay on A549 NSCLC, with DU-145 prostate, in the assay with EKVX NSCLC, in the assay with HCT-15 colon, in the assay on MCF7 breast and in the assay with NCI/ADR-RES ovarian was greater than 100 µM each time. Further, the TGI was greater than 100 µM in the assay on OVCAR-8 ovarian, greater than 100 µM in the assay on RPMI-8226 leukemia, greater than 100 µM in the assay with SK-MEL-5 melanoma and 51.6 µM in the assay with SR leukemia.

Consider `CNCCNc1nc2ccccc2c2c(=O)c3cc(OC)ccc3sc12`, for which the GI50 in the assay on A549 NSCLC was 1.71 µM; in the assay on DU-145 prostate it was 1.73 µM; in the assay on EKVX NSCLC, 1.69 µM; in the assay on HCT-15 colon, 1.39 µM; in the assay with MCF7 breast, 1.54 µM; in the assay with NCI/ADR-RES ovarian it was 1.68 µM. Further, the GI50 is 1.91 µM in the assay on OVCAR-8 ovarian, 1.62 µM in the assay with RPMI-8226 leukemia, 1.71 µM in the assay with SK-MEL-5 melanoma and 1.74 µM in the assay on SR leukemia. In addition, the TGI with A549 NSCLC was found to be 3.41 µM; in the assay with DU-145 prostate it was 3.16 µM; in the assay on EKVX NSCLC, 3.16 µM; in the assay with HCT-15 colon, 2.83 µM; with MCF7 breast, 3.1 µM; with NCI/ADR-RES ovarian it was 3.48 µM. Further, the TGI in the assay on OVCAR-8 ovarian turned out to be 4.39 µM; in the assay with RPMI-8226 leukemia, 3.41 µM; with SK-MEL-5 melanoma, 3.09 µM; in the assay with SR leukemia, 4.23 µM.

`COc1cc2c(c(OC)c1OC)-c1ccc(O)c(=O)cc1[C@@H](NC(C)=O)CC2`: the GI50 with A549 NSCLC was 10.1 µM; in the assay with DU-145 prostate, 9.82 µM; in the assay with HCT-15 colon, 5.04 µM; with MCF7 breast it was 4.37 µM; in the assay with NCI/ADR-RES ovarian it was 4.6 µM; in the assay with OVCAR-8 ovarian, 3.77 µM. In addition, the GI50 was 8.15 µM in the assay on RPMI-8226 leukemia and 4.74 µM in the assay with SR leukemia. Further, the TGI with A549 NSCLC was 89.3 µM and > 100 µM; in the assay with DU-145 prostate, greater than 100 µM; in the assay on EKVX NSCLC, greater than 100 µM; with HCT-15 colon it was > 100 µM and 28 µM; with MCF7 breast it was > 100 µM and 63.5 µM; in the assay on NCI/ADR-RES ovarian it was > 100 µM and 36.2 µM. Also, the TGI in the assay on OVCAR-8 ovarian was > 100 µM and 35.7 µM; with RPMI-8226 leukemia, > 100 µM and 36.9 µM; in the assay with SK-MEL-5 melanoma, 32.2 µM and 20.5 µM; in the assay on SR leukemia, 97.9 µM and 18.1 µM.

As for `Clc1ccc2c(c1)C(N1CCNCC1)=Nc1ccccc1O2`, the GI50 in the assay on A549 NSCLC was 4.5 µM; in the assay with DU-145 prostate, 4.18 µM; in the assay with EKVX NSCLC, 3.47 µM; with HCT-15 colon it was 3.26 µM; in the assay on MCF7 breast, 1.62 µM; in the assay on NCI/ADR-RES ovarian, 1.99 µM. In addition, the GI50 in the assay with OVCAR-8 ovarian is 1.86 µM; with RPMI-8226 leukemia, 1.96 µM; in the assay with SK-MEL-5 melanoma, 1.39 µM; with SR leukemia, 1.66 µM. In addition, the TGI in the assay on A549 NSCLC amounted to 16.9 µM; with DU-145 prostate, 15.4 µM; in the assay with EKVX NSCLC, 17.4 µM; in the assay with HCT-15 colon, 11.7 µM; in the assay on MCF7 breast, 3.05 µM; with NCI/ADR-RES ovarian it was 5.12 µM. Also, the TGI is 4 µM with OVCAR-8 ovarian, 4.93 µM in the assay on RPMI-8226 leukemia, 2.69 µM with SK-MEL-5 melanoma and 4.3 µM with SR leukemia.

Regarding `COc1cc(/C=C2\CN(C(=O)CCN3CCC(=NO)CC3)C/C(=C\c3cc(OC)c(OC)c(OC)c3)C2=O)cc(OC)c1OC`, the GI50 in the assay with A549 NSCLC was 1.15 µM; in the assay on DU-145 prostate it was 0.657 µM; in the assay on EKVX NSCLC it was 1.82 µM; with HCT-15 colon, 0.972 µM; with MCF7 breast, 0.382 µM; with NCI/ADR-RES ovarian it was 2.71 µM. Moreover, the GI50 is 0.444 µM with OVCAR-8 ovarian, 0.268 µM with RPMI-8226 leukemia, 0.302 µM in the assay on SK-MEL-5 melanoma and 0.255 µM in the assay with SR leukemia. The TGI with A549 NSCLC is 5.82 µM; with DU-145 prostate, 1.7 µM; with EKVX NSCLC, 4.81 µM; in the assay on HCT-15 colon, 3.22 µM; in the assay on MCF7 breast, 2.44 µM; in the assay on NCI/ADR-RES ovarian, greater than 100 µM. For the same compound, the TGI in the assay on OVCAR-8 ovarian was greater than 35.6 µM; in the assay on RPMI-8226 leukemia, 0.851 µM; with SK-MEL-5 melanoma, 0.927 µM; in the assay with SR leukemia, greater than 27.7 µM.
